In this experiment the test system is MES-SA. Nature of the experiment: relative viability vs DMSO control (72 h) (fraction); higher = more viable cells. The essentials: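 Relative viability is percent growth read by ATPLite and averaged over up to triplicate wells. Sarcoma cells were seeded in 384-well plates to reach 80–90% confluence and given 2.5 µl of serially diluted compound after 24 h, from source plates of 10 mM to 0.0002 mM. Incubation lasted 72 h at 37 °C, 5% CO2, with 0.1% DMSO vehicle and a 5 µM positive control, and the data were rescaled so 1 equals full and 0 equals none.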

± gives the standard deviation of the averaged measurements.

On to `CO[C@H]1C[C@@H]2CC[C@@H](C)[C@@](O)(O2)C(=O)C(=O)N2CCCC[C@H]2C(=O)O[C@H]([C@H](C)C[C@@H]2CC[C@@H](OP(C)(C)=O)[C@H](OC)C2)CC(=O)[C@H](C)/C=C(\C)[C@@H](O)[C@@H](OC)C(=O)[C@H](C)C[C@H](C)/C=C/C=C/C=C/1C` [Ridaforolimus], for which the relative viability is, setting by setting: (0.00017 µM) 0.888 ± 0.04; (0.00051 µM) 0.827 ± 0.055; (0.00152 µM) 0.599 ± 0.0079; (0.00457 µM) 0.489 ± 0.015; (0.01372 µM) 0.423 ± 0.021; (0.04115 µM) 0.403 ± 0.024. Further, the relative viability (0.1235 µM) came out at 0.4 ± 0.0088; the relative viability (0.3704 µM) came out at 0.368 ± 0.027; the relative viability (1.111 µM) stood at 0.376 ± 0.0059; the relative viability (3.333 µM) stood at 0.367 ± 0.023; the relative viability (10 µM) worked out at 0.374 ± 0.024.

Take `COc1cc2nccc(Oc3ccc(NC(=O)Nc4cc(C)on4)c(Cl)c3)c2cc1OC` [Tivozanib]: the relative viability reads like this: (0.00017 µM) 0.914 ± 0.018; (0.00051 µM) 0.926 ± 0.051; (0.00152 µM) 0.925 ± 0.036; (0.00457 µM) 0.932 ± 0.035; (0.01372 µM) 0.94 ± 0.0096; (0.04115 µM) 0.944 ± 0.035. This compound yielded a relative viability (0.1235 µM) of 0.923 ± 0.013; a relative viability (0.3704 µM) of 0.955 ± 0.025; a relative viability (1.111 µM) of 0.977 ± 0.021; a relative viability (3.333 µM) of 0.697 ± 0.041; a relative viability (10 µM) of 0.231 ± 0.0086.

Consider `C[C@@H](c1ccc2nccn2c1)n1nnc2ncc(-c3cnn(C)c3)nc21` [Volitinib], for which the relative viability by setting is: (0.00017 µM) 0.91 ± 0.021; (0.00051 µM) 0.92 ± 0.053; (0.00152 µM) 0.97 ± 0.022; (0.00457 µM) 0.927 ± 0.043; (0.01372 µM) 0.959 ± 0.019; (0.04115 µM) 0.957 ± 0.026. The relative viability runs as follows: (0.1235 µM) 0.929 ± 0.039; (0.3704 µM) 0.949 ± 0.029; (1.111 µM) 0.926 ± 0.018; (3.333 µM) 0.942 ± 0.018; (10 µM) 0.902 ± 0.035.

On to `COc1cc2c(cc1O)CCN[C@]21CS[C@@H]2c3c(OC(C)=O)c(C)c4c(c3[C@H](COC1=O)N1[C@@H]2[C@H]2c3c(cc(C)c(OC)c3O)C[C@@H]([C@@H]1O)N2C)OCO4` [Trabectedin], for which the relative viability runs as follows: (2 pM) 0.939 ± 0.021; (5 pM) 0.903 ± 0.022; (15 pM) 0.886 ± 0.036; (50 pM) 0.819 ± 0.039; (0.00014 µM) 0.667 ± 0.049; (0.00041 µM) 0.471 ± 0.025. For the same compound, the relative viability reads like this: (0.0012 µM) 0.0389 ± 0.024; (0.0037 µM) 0.0573 ± 0.00061; (0.011 µM) 0.0496 ± 0.003; (200 fM) 0.997 ± 0.015; (600 fM) 0.963 ± 0.015.

For the compound `Cc1nc(-c2cn3c(n2)-c2ccc(-c4cnn(C(C)(C)C(N)=O)c4)cc2OCC3)n(C(C)C)n1` [Taselisib], the relative viability is, setting by setting: (0.00017 µM) 0.901 ± 0.028; (0.00051 µM) 0.9023 ± 0.004; (0.00152 µM) 0.887 ± 0.033; (0.00457 µM) 0.858 ± 0.021; (0.01372 µM) 0.797 ± 0.035; (0.04115 µM) 0.692 ± 0.01. The relative viability was 0.504 ± 0.015 (0.1235 µM); 0.386 ± 0.014 (0.3704 µM); 0.299 ± 0.0098 (1.111 µM); 0.214 ± 0.0027 (3.333 µM); 0.146 ± 0.0072 (10 µM).

As to `COc1cc2c(Oc3ccc4[nH]c(C)cc4c3F)ncnc2cc1OCCCN1CCCC1` [Cediranib], the relative viability (0.00017 µM) was 0.944 ± 0.036; the relative viability (0.00051 µM) was 0.934 ± 0.065; the relative viability (0.00152 µM) was determined as 0.949 ± 0.041; the relative viability (0.00457 µM) amounted to 0.929 ± 0.037; the relative viability (0.01372 µM) came out at 0.967 ± 0.012; the relative viability (0.04115 µM) stood at 0.95 ± 0.02. In addition, the relative viability reads like this: (0.1235 µM) 0.9503 ± 0.0085; (0.3704 µM) 0.966 ± 0.029; (1.111 µM) 0.774 ± 0.037; (3.333 µM) 0.619 ± 0.02; (10 µM) 0.257 ± 0.023.

With `Cc1nc(NC(=O)N2CCC[C@H]2C(N)=O)sc1-c1ccnc(C(C)(C)C(F)(F)F)c1` [Alpelisib], the relative viability reads like this: (0.00017 µM) 0.884 ± 0.046; (0.00051 µM) 0.909 ± 0.053; (0.00152 µM) 0.901 ± 0.01; (0.00457 µM) 0.88 ± 0.052; (0.01372 µM) 0.879 ± 0.033; (0.04115 µM) 0.843 ± 0.034. In addition, the relative viability is 0.774 ± 0.014 (0.1235 µM); 0.64 ± 0.016 (0.3704 µM); 0.526 ± 0.019 (1.111 µM); 0.43 ± 0.015 (3.333 µM); 0.323 ± 0.0056 (10 µM).

`COc1cc2/c(=N/c3ccc(Br)cc3F)nc[nH]c2cc1OCC1CCN(C)CC1` [Vandetanib] returned a relative viability (0.00017 µM) of 0.907 ± 0.02; a relative viability (0.00051 µM) of 0.925 ± 0.033; a relative viability (0.00152 µM) of 0.9 ± 0.013; a relative viability (0.00457 µM) of 0.932 ± 0.041; a relative viability (0.01372 µM) of 0.909 ± 0.053; a relative viability (0.04115 µM) of 0.907 ± 0.054. The relative viability reads like this: (0.1235 µM) 0.926 ± 0.022; (0.3704 µM) 0.909 ± 0.035; (1.111 µM) 0.804 ± 0.029; (3.333 µM) 0.6028 ± 0.0021; (10 µM) 0.127 ± 0.0064.

With `C[C@]1(O)C[C@@H](c2nc(-c3ccc4ccc(-c5ccccc5)nc4c3)c3c(N)nccn32)C1` [Linsitinib], the relative viability reads like this: (0.00017 µM) 0.983 ± 0.02; (0.00051 µM) 0.958 ± 0.021; (0.00152 µM) 0.9582 ± 0.0041; (0.00457 µM) 0.926 ± 0.015; (0.01372 µM) 0.962 ± 0.015; (0.04115 µM) 0.943 ± 0.025. The relative viability is 0.958 ± 0.035 (0.1235 µM); 0.898 ± 0.024 (0.3704 µM); 0.887 ± 0.01 (1.111 µM); 0.784 ± 0.0085 (3.333 µM); 0.63 ± 0.023 (10 µM).

As to `C=CC(=O)N1CCC([C@@H]2CCNc3c(C(N)=O)c(-c4ccc(Oc5ccccc5)cc4)nn32)CC1` [Zanubrutinib], the relative viability by setting is: (0.00017 µM) 0.9598 ± 0.0038; (0.00051 µM) 0.965 ± 0.013; (0.00152 µM) 0.959 ± 0.026; (0.00457 µM) 0.983 ± 0.033; (0.01372 µM) 0.918 ± 0.031; (0.04115 µM) 0.95 ± 0.037. Besides, the relative viability was determined as 0.92 ± 0.041 (0.1235 µM); 0.965 ± 0.034 (0.3704 µM); 0.955 ± 0.018 (1.111 µM); 0.881 ± 0.041 (3.333 µM); 0.742 ± 0.034 (10 µM).

Regarding `Cn1cc(-c2cc3c(N4CCN(c5ncc([C@@](C)(N)c6ccc(F)cc6)cn5)CC4)ncnn3c2)cn1` [Avapritinib], the relative viability came to 0.882 ± 0.024 (0.00017 µM); 0.867 ± 0.036 (0.00051 µM); 0.8778 ± 0.0081 (0.00152 µM); 0.884 ± 0.016 (0.00457 µM); 0.91 ± 0.016 (0.01372 µM); 0.902 ± 0.038 (0.04115 µM). Moreover, the relative viability was determined as 0.898 ± 0.02 (0.1235 µM); 0.884 ± 0.018 (0.3704 µM); 0.795 ± 0.014 (1.111 µM); 0.624 ± 0.02 (3.333 µM); 0.51 ± 0.011 (10 µM).

With `CC(=O)Nc1cccc(-n2c(=O)n(C3CC3)c(=O)c3c(Nc4ccc(I)cc4F)n(C)c(=O)c(C)c32)c1` [Trametinib], the relative viability by setting is: (0.00017 µM) 0.968 ± 0.022; (0.00051 µM) 0.965 ± 0.012; (0.00152 µM) 0.929 ± 0.017; (0.00457 µM) 0.873 ± 0.029; (0.01372 µM) 0.831 ± 0.015; (0.04115 µM) 0.78 ± 0.011. Further, the relative viability was 0.76 ± 0.015 (0.1235 µM); 0.736 ± 0.034 (0.3704 µM); 0.683 ± 0.032 (1.111 µM); 0.701 ± 0.017 (3.333 µM); 0.6906 ± 0.006 (10 µM).
